Assay results from patent publication US6645976B1 (Eli Lilly and Company, priority 1994, dated 2003).

The compounds below were run against T1, recombinant human secreted phospholipase A2 (Homo sapiens, UniProt P14555) (assay: sPLA2 Chromogenic Assay (Assay 1)). Conditions: diheptanoyl thio-PC substrate, pH 7.5, 40° C. for 30 minutes, absorbance at 405 nanometers.
T1 sequence (P14555 21-144): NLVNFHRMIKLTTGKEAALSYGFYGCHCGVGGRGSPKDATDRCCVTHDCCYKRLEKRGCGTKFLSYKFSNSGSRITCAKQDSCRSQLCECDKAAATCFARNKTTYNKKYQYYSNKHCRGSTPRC
Assay type: biochemical

Row | IC50 | Compound
1 | 600 nM | CCOC(=O)CCCOc1ccn2c(Cc3ccccc3-c3ccccc3)c(CC)c(CC(N)=O)c2c1 [Compound 71a, 2-(7-(3-Carbethoxypropyloxy)-2-ethyl-3-(o-phenylbenzyl)indolizin-1-yl)acetamide]
2 | 61 nM | CCc1c(C(=O)C(N)=O)c2c(OCC(=O)OCCC(=O)OC3(C)CCCC3)cccn2c1Cc1ccccc1-c1ccccc1 [Compound 59h, 2-(3-Biphenyl-2-ylmethyl-2-ethyl-8-(1-methylcyclopentyloxycarbonylethyloxycarbonyl-methyloxy)-indolizin-1-yl)glyoxylamide]
3 | 46 nM | CCc1c(C(=O)C(N)=O)c2c(OCC(=O)OC(C)OC(=O)OC(C)C)cccn2c1Cc1ccccc1-c1ccccc1 (stereo not drawn) [Compound 59c, 2-(3-Biphenyl-2-ylmethyl-2-ethyl-8-(1-isopropyloxycarbonyloxyethoxycarbonylmethoxy)indolizin-1-yl)glyoxylamide]
4 | 140 nM | CCc1c(C(=O)C(N)=O)c2cc(OCCCC(=O)O)ccn2c1Cc1ccccc1-c1ccccc1 [Compound 67c, 2-(7-(3-Carboxypropyloxy)-2-ethyl-3-(o-phenylbenzyl)indolizin-1-yl)glyoxylamide]
5 | 35 nM | CC(C)c1c(C(=O)C(N)=O)c2c(OCC(=O)O)cccn2c1Cc1ccccc1-c1ccccc1 [Compound 58c]
6 | 240 nM | CCc1c(C(=O)C(N)=O)c2cc(OCCC(=O)O)ccn2c1Cc1ccccc1-c1ccccc1 [Compound 70b]
7 | 8 nM | Cc1c(C(=O)C(N)=O)c2c(OCC(=O)O)cccn2c1Cc1ccccc1-c1ccccc1 [Compound 58a, 2-(3-(Biphenyl-2-ylmethyl)-8-carboxymethoxyl-2-methylindolizin-1-yl)glyoxylamide]
8 | 200 nM | CCc1c(C(=O)C(N)=O)c2cc(OCCCC(=O)O)ccn2c1Cc1ccccc1 [Compound 67a, 2-(3-Benzyl-7-(3-carboxylpropyloxy)-2-ethylindolizin-1-yl)glyoxylamide]

Continued, compound first:

Row | Compound | IC50
9 | CCc1c(C(=O)C(N)=O)c2c(OCC(=O)OC)cccn2c1Cc1cccc(-c2ccccc2)c1 [Compound 57g, 2-(8-Carbomethoxymethyloxy-2-ethyl-3-(m-phenylbenzyl)indlolin-1-yl)glyoxylamide] | 80 nM
10 | CCc1c(C(=O)C(N)=O)c2c(OCC(=O)O)cccn2c1Cc1cccc(OC)c1 [Compound 52m, 2-(2-Ethyl-8-(carboxymethyloxy)-3-(m-methoxybenzyl)indolizine-1-yl)glyoxylamide] | 21 nM
11 | Cc1c(C(=O)C(N)=O)c2c(OCC(=O)O)cccn2c1Cc1ccccc1 [Compound 40g, (3-Benzyl-8-(carboxymethyloxy)-2-methylindolizin-1-yl)glyoxylamide] | 8 nM
12 | CCc1c(C(=O)C(N)=O)c2c(OCC(=O)O)cccn2c1CCc1ccccc1 [Compound 52i, 2-(8-(Carboxymethyoxy)-2-ethyl-3-(2-phenylethyl)indolizin-1-yl)glyoxylamide] | 51 nM
13 | COC(=O)COc1cccn2c(Cc3cccc4ccccc34)c(C3CC3)c(C(=O)C(N)=O)c12 [Compound 57j, 2-(8-Carbomethoxymethyloxy-2-cyclopropyl-3-(1-naphthylmethyl)indlolin-1-yl)glyoxylamide] | 790 nM
14 | CCc1c(C(=O)C(N)=O)c2c(OCC(=O)O)cccn2c1Cc1cccs1 [Compound 52k, 2-(8-(Carboxymethyloxy)-2-ethyl-3-(thiophen-2-ylmethyl)indolizin-1-yl)glyoxylamide] | 11 nM
15 | CCc1c(C(=O)C(N)=O)c2c(OCc3nnnn3C(c3ccccc3)(c3ccccc3)c3ccccc3)cccn2c1Cc1ccccc1-c1ccccc1 [Compound 59l, 2-(3-(Biphenyl-2-yl-methyl)-2-ethyl-8-(1-tritytretrazol(-5-yl)methyloxy)indolizine-1-yl)glyoxylamide] | 110 nM
16 | CCc1c(C(=O)C(=O)NC)c2c(OCC(=O)O)cccn2c1Cc1ccccc1 [Compound 40b, (3-Benzyl-8-(carboxymethyloxy)-2-ethylindolizin-1-yl)glyoxyl-N-methylamide, reference compound] | > 50000 nM
17 | CCc1c(C(=O)C(N)=O)c2c(OCC(=O)O)cccn2c1CC1CCCCC1 [Compound 52b, 2-(8-Carboxymethyloxy-3-cyclohexylmethyl-2-ethylindolizin-1-yl)glyoxylamide] | 21 nM
18 | CCc1c(CC(N)=O)c2c(OCC(=O)OCc3ccccc3)cccn2c1Cc1ccccc1-c1ccccc1 [Compound 21x, 2-(8-(Benzyloxycarbonylmethyloxy)-2-ethyl-3-(o-phenylbenzyl)indolizin-1-yl)acetamide] | 140 nM
19 | 2-(3-(Biphenyl-2-yl-methyl)-8-(carboxymethyloxy)-2-ethylindolizine-1-yl)glyoxylamide diglycolate [Compound 59j] | 53 nM
20 | CCCCCc1c(CC)c(C(=O)C(N)=O)c2c(OCC(=O)O)cccn12 [Compound 52e, 2-(8-Carboxymethyloxy-2-ethyl-3-pentylindolizin-1-yl)glyoxylamide] | 62 nM
21 | CCc1c(C(=O)C(N)=O)c2c(OCC(=O)O)cccn2c1Cc1ccccc1Cc1ccccc1 [Compound 52j, 2-(8-(Carboxymethyloxy)-3-o-benzylbenzyl-2-ethylindolizin-1-yl)glyoxylamide] | 6 nM
22 | CCCCCC1CCC(Cc2c(CC)c(C(=O)C(N)=O)c3c(OCC(=O)O)cccn23)CC1 (stereo not drawn) [Compound 52o, 2-(8-(Carboxymethyloxy)-2-ethyl-3-(4-n-pentylcyclohexylmethyl)indolizin-1-yl)glyoxylamide] | 25 nM
23 | CCc1c(Cc2ccccc2)c2ccc(OCCCC(=O)O)cn2c1C(=O)C(N)=O [Compound 11, (1-Benzyl-6-(3-carboxypropyloxy)-2-ethylindolizin-3-yl)glyoxylamide] | 1100 nM
24 | CCc1c(CC(N)=O)c2c(OCC(=O)O)cccn2c1Cc1cccc(Cl)c1 [Compound 22y, 2-(8-(Carboxymethyloxy)-3-(m-chlorobenzyl)-2-ethylindolizin-1-yl)acetamide] | 15 nM
25 | CCCCc1ccc(Cc2c(CC)c(C(=O)C(N)=O)c3c(OCC(=O)O)cccn23)cc1 [Compound 52s, 2-(3-(p-n-Butylbenzyl)-8-(carboxymethyloxy)-2-ethylindolizin-1-yl)glyoxylamide] | 11 nM
26 | CCc1c(C(=O)C(N)=O)c2c(OCC(=O)O)cccn2c1CC1CCCCCC1 [Compound 52d, 2-(8-Carboxymethyloxy-3-cycloheptylmethyl-2-ethylindolizin-1-yl)glyoxylamide] | 23 nM
27 | CCc1c(C(=O)C(N)=O)c2c(OCC(=O)O)cccn2c1Cc1ccccc1[N+](=O)[O-] [Compound 52n, 2-(2-Ethyl-8-(carboxymethyloxy)-3-(o-nitrobenzyl)indolizine-1-yl)glyoxylamide] | 36 nM
28 | CSc1c(C(=O)C(N)=O)c2c(OCC(=O)O)cccn2c1Cc1ccccc1-c1ccccc1 [Compound 83, 2-(8-(Carboxymethyloxy)-2-methylthio-3-(o-phenylbenzyl)indolizin-lyl)-glyoxylamide] | 16 nM
29 | CCc1c(CC(N)=O)c2c(O)cccn2c1Cc1ccccc1-c1ccccc1 [Compound 20x, 2-(2-Ethyl-8-hydroxy-3-(o-phenylbenzyl)-indolizin-1-yl)acetamide] | 840 nM
30 | CCc1c(C(=O)C(N)=O)c2c(OCC(=O)O)cccn2c1Cc1ccccc1 [Compound 40a, (3-Benzyl-8-(carboxymethyloxy)-2-ethylindolizin-1-yl)glyoxylamide] | 8 nM
